Assay results published in patent publication US11192890B2, “FGFR kinase inhibitors and pharmaceutical uses” (AUCKLAND UNISERVICES LIMITED, priority 2017, dated 2021).
pIC50: −log10 of the molar value. Like-named read-outs stand apart in the source and are kept apart here.

What was measured:
[1] = molecular target: T1, FGFR1 (Homo sapiens, UniProt P11362); assay: Isolated enzyme FRET-based Z-Lyte kinase inhibition assay; assay type: biochemical; details: means from 3 independent experiments; read-out: Isolate Enzyme Inhibition IC50, FGFR1
T1 construct: purchased Invitrogen
Procedure: (§1) FGFR1-4 and the Z-Lyte Kinase Assay Kit were purchased from Invitrogen. The concentration gradients from 5.1×10^−11 to 1.0×10^−6 mol/L were used for all the test compounds. The experiments were performed according to the instructions of the manufacturer.
(§2) FGFR1-4 isolated enzyme activity was determined using the FRET-based Z-Lyte kinase inhibition assay. The data are the means from 3 independent experiments.

[2] = molecular target: T2, FGFR2 (Homo sapiens, UniProt P21802); assay: as above; assay type: biochemical; details: means from 3 independent experiments; read-out: Isolate Enzyme Inhibition IC50, FGFR2
T2 construct: purchased Invitrogen
Procedure: as §1, §2

[3] = molecular target: T3, FGFR3 (Homo sapiens, UniProt P22607); assay: as above; assay type: biochemical; details: means from 3 independent experiments; read-out: Isolate Enzyme Inhibition IC50, FGFR3
T3 construct: purchased Invitrogen
Procedure: as §1, §2

[4] = system: FGFR1 in H520 cells (phospho-ERK1/2); assay: Drug washout Western blot assay, H520 cells; assay type: cell-based; details: H520; 30 min exposure, 100 nM, with and without washout
[5] = system: FGFR3 in SW780 cells (phospho-ERK1/2); assay: Drug washout Western blot assay, SW780 cells; assay type: cell-based; details: SW780; 30 min exposure, 100 nM, with and without washout
[6] = system: SUM52 cells; assay: Oxic and anoxic anti-proliferative activity of the prodrugs; details: for Hypoxic Cytotoxicity Ratio (HCR), SUM52: ratio of oxic and anoxic IC50
[7] = read-out: Cellular Anti-proliferative IC50, SUM52, Anoxic, 4 hours of anoxia, remainder of assay oxic
[8] = read-out: Cellular Anti-proliferative IC50, SUM52, Oxic, oxic conditions

T2 sequence (P21802 22-821): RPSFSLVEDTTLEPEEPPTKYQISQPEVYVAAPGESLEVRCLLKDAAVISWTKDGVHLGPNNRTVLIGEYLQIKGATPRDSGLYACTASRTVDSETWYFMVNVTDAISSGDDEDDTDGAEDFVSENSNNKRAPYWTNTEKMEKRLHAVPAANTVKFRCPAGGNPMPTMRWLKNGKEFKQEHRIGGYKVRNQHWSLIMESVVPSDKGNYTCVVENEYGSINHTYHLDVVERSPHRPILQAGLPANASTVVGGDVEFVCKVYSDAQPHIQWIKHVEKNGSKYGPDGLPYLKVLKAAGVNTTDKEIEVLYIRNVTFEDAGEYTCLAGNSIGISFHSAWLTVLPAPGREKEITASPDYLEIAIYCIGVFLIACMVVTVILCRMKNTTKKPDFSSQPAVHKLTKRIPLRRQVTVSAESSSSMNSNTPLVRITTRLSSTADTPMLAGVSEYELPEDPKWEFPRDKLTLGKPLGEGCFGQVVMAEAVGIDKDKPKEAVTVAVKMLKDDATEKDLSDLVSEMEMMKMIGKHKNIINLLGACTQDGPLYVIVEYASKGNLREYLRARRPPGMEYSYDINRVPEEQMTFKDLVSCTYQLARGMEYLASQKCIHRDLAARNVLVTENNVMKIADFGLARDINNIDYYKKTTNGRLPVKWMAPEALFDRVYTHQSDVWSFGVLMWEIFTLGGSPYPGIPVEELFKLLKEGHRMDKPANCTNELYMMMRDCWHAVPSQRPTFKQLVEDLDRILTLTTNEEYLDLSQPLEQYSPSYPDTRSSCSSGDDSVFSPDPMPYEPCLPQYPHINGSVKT
T1 sequence (P11362 22-822): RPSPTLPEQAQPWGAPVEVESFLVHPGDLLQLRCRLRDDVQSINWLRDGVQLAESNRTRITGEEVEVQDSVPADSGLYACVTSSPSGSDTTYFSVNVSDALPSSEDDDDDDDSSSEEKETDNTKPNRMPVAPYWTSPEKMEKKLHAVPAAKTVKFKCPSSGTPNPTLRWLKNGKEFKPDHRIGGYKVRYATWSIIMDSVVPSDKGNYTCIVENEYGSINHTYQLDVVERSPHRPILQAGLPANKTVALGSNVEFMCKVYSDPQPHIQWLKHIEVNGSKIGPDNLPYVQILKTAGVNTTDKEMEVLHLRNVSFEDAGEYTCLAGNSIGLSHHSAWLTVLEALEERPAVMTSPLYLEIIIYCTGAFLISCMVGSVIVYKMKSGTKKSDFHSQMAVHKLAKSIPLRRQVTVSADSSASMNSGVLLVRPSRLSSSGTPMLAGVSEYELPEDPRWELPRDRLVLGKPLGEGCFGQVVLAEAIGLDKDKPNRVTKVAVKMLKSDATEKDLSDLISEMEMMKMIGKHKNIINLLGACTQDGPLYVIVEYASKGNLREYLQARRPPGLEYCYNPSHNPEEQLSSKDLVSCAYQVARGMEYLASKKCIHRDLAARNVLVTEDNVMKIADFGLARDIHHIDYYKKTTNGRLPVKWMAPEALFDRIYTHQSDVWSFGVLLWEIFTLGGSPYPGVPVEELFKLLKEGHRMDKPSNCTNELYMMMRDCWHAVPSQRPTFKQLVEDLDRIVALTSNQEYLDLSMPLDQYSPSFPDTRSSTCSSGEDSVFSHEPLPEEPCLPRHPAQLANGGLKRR
T3 sequence (P22607 23-806): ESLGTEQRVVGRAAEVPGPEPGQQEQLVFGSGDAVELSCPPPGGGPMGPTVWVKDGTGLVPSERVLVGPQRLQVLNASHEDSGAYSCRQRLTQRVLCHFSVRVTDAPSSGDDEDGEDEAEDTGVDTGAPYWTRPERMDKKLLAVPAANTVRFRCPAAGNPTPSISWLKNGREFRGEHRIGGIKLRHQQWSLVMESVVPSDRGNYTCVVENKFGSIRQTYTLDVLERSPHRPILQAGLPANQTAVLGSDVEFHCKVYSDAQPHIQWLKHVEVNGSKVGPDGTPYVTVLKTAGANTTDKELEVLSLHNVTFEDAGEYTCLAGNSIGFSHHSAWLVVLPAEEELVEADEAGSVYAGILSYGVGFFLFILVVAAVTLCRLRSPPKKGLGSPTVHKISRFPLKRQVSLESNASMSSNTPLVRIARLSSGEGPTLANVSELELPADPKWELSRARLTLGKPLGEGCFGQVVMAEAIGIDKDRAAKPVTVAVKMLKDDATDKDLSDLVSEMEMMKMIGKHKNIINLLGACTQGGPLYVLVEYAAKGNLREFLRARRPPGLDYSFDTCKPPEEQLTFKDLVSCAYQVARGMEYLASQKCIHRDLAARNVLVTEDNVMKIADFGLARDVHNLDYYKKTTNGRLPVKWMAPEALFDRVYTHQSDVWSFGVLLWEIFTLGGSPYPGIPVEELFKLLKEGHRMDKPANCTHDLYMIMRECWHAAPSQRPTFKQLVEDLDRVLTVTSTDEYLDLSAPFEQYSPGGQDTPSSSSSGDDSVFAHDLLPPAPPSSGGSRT

Row | SMILES | pIC50 [1] | pIC50 [2] | pIC50 [3] | reversible or irreversible inhibition of FGFR1 in cells [4] | reversible or irreversible inhibition of FGFR3 in cells [5] | Hypoxic Cytotoxicity Ratio (HCR), SUM52 [6] | pIC50 [6, 7] | pIC50 [6, 8]
1 | CNc1ncc2c(n1)N(C1CCN(C(=O)/C=C/CN3CCCCC3)CC1)C(=O)N(c1c(Cl)c(OC)cc(OC)c1Cl)C2 [Compound 124, (E)-3-(2,6-dichloro-3,5-dimethoxyphenyl)-7-(methylamino)-1-(1-(4-(piperidin-1-yl)but-2-enoyl)piperidin-4-yl)-3,4-dihydropyrimido[4,5-d]pyrimidin-2(1H)-one] | 9.10 | 8.72 | 7.92 | – | – | – | – | –
2 | CNc1ncc2c(n1)N(Cc1cccc(NC(=O)/C=C/CN(C)C)c1)C(=O)N(c1c(Cl)c(OC)cc(OC)c1Cl)C2 [Compound 127, (E)-N-(3-((3-(2,6-dichloro-3,5-dimethoxyphenyl)-7-(methylamino)-2-oxo-3,4-dihydropyrimido[4,5-d]pyrimidin-1(2H)-yl)methyl)phenyl)-4-(dimethylamino)but-2-enamide] | 9.00 | 8.57 | 7.46 | – | – | – | – | –
3 | CNc1ncc2cc(-c3c(Cl)c(OC)cc(OC)c3Cl)c(=O)n(C3CCN(C(=O)/C=C/CN(C)C)CC3)c2n1 [Compound 132, (E)-6-(2,6-dichloro-3,5-dimethoxyphenyl)-8-(1-(4-(dimethylamino)but-2-enoyl)piperidin-4-yl)-2-(methylamino)pyrido[2,3-d]pyrimidin-7(8H)-one] | 9.15 | 9.00 | 8.31 | – | – | – | – | –
4 | COc1cc(OC)c(Cl)c(-c2cc3cnc(NC4CCOC4)nc3n(C3CCN(C(=O)/C=C/CN(C)C)CC3)c2=O)c1Cl (centres unmarked) [Compound 134, (E)-6-(2,6-dichloro-3,5-dimethoxyphenyl)-8-(1-(4-(dimethylamino)but-2-enoyl)piperidin-4-yl)-2-((tetrahydrofuran-3-yl)amino)pyrido[2,3-d]pyrimidin-7(8H)-one] | 8.96 | 8.80 | 7.96 | – | – | – | – | –
5 | COc1cc(OC)c(Cl)c(-c2cc3cnc(NC4CCOCC4)nc3n(C3CCN(C(=O)/C=C/CN(C)C)CC3)c2=O)c1Cl [Compound 135, (E)-6-(2,6-dichloro-3,5-dimethoxyphenyl)-8-(1-(4-(dimethylamino)but-2-enoyl)piperidin-4-yl)-2-((tetrahydro-2H-pyran-4-yl)amino)pyrido[2,3-d]pyrimidin-7(8H)-one] | 9.05 | 8.92 | 8.20 | – | – | – | – | –
6 | COc1cc(OC)c(Cl)c(-c2cc3cnc(NC4CCCCC4)nc3n(C3CCN(C(=O)/C=C/CN(C)C)CC3)c2=O)c1Cl [Compound 136, (E)-2-(cyclohexylamino)-6-(2,6-dichloro-3,5-dimethoxyphenyl)-8-(1-(4-(dimethylamino)but-2-enoyl)piperidin-4-yl)pyrido[2,3-d]pyrimidin-7(8H)-one] | 8.96 | 8.89 | 8.17 | – | – | – | – | –
7 | COc1cc(OC)c(Cl)c(-c2cc3cnc(Nc4ccccc4)nc3n(C3CCN(C(=O)/C=C/CN(C)C)CC3)c2=O)c1Cl [Compound 138, (E)-6-(2,6-dichloro-3,5-dimethoxyphenyl)-8-(1-(4-(dimethylamino)but-2-enoyl)piperidin-4-yl)-2-(phenylamino)pyrido[2,3-d]pyrimidin-7(8H)-one] | 8.96 | 8.96 | 8.29 | potent irreversible inhibitors | – | – | – | –
8 | COc1cc(OC)c(Cl)c(-c2cc3cnc(Nc4ccc(F)cc4)nc3n(C3CCN(C(=O)/C=C/CN(C)C)CC3)c2=O)c1Cl [Compound 139, (E)-6-(2,6-dichloro-3,5-dimethoxyphenyl)-8-(1-(4-(dimethylamino)but-2-enoyl)piperidin-4-yl)-2-((4-fluorophenyl)amino)pyrido[2,3-d]pyrimidin-7(8H)-one] | 9.52 | 8.96 | 8.22 | – | – | – | – | –
9 | COc1cccc(Nc2ncc3cc(-c4c(Cl)c(OC)cc(OC)c4Cl)c(=O)n(C4CCN(C(=O)/C=C/CN(C)C)CC4)c3n2)c1 [Compound 140, (E)-6-(2,6-dichloro-3,5-dimethoxyphenyl)-8-(1-(4-(dimethylamino)but-2-enoyl)piperidin-4-yl)-2-((3-methoxyphenyl)amino)pyrido[2,3-d]pyrimidin-7(8H)-one] | 9.15 | 9.05 | 8.31 | – | – | – | – | –
10 | COc1cc(Nc2ncc3cc(-c4c(Cl)c(OC)cc(OC)c4Cl)c(=O)n(C4CCN(C(=O)/C=C/CN(C)C)CC4)c3n2)ccc1F [Compound 141, (E)-6-(2,6-dichloro-3,5-dimethoxyphenyl)-8-(1-(4-(dimethylamino)but-2-enoyl)piperidin-4-yl)-2-((4-fluoro-3-methoxyphenyl)amino)pyrido[2,3-d]pyrimidin-7(8H)-one] | 9.15 | 8.82 | 8.26 | – | – | – | – | –
11 | CNc1ncc2cc(-c3c(Cl)c(OC)cc(OC)c3Cl)c(=O)n(Cc3cccc(NC(=O)/C=C/CN(C)C)c3)c2n1 [Compound 143, (E)-N-(3-((6-(2,6-dichloro-3,5-dimethoxyphenyl)-2-(methylamino)-7-oxopyrido[2,3-d]pyrimidin-8(7H)-yl)methyl)phenyl)-4-(dimethylamino)but-2-enamide] | 9.10 | 9.05 | 8.10 | – | – | – | – | –
12 | CCNc1ncc2cc(-c3c(Cl)c(OC)cc(OC)c3Cl)c(=O)n(Cc3cccc(NC(=O)/C=C/CN(C)C)c3)c2n1 [Compound 144, (E)-N-(3-((6-(2,6-dichloro-3,5-dimethoxyphenyl)-2-(ethylamino)-7-oxopyrido[2,3-d]pyrimidin-8(7H)-yl)methyl)phenyl)-4-(dimethylamino)but-2-enamide] | 9.05 | 8.80 | 8.17 | – | – | – | – | –
13 | COc1cc(OC)c(Cl)c(-c2cc3cnc(NC(C)C)nc3n(Cc3cccc(NC(=O)/C=C/CN(C)C)c3)c2=O)c1Cl [Compound 145, (E)-N-(3-((6-(2,6-dichloro-3,5-dimethoxyphenyl)-2-(isopropylamino)-7-oxopyrido[2,3-d]pyrimidin-8(7H)-yl)methyl)phenyl)-4-(dimethylamino)but-2-enamide] | 8.89 | 8.60 | 8.16 | – | – | – | – | –
14 | CNc1ncc2cc(-c3c(Cl)c(OC)cc(OC)c3Cl)c(=O)n(C(C)c3cccc(NC(=O)/C=C/CN(C)C)c3)c2n1 (centres unmarked) [Compound 146, (E)-N-(3-(1-(6-(2,6-dichloro-3,5-dimethoxyphenyl)-2-(methylamino)-7-oxopyrido[2,3-d]pyrimidin-8(7H)-yl)ethyl)phenyl)-4-(dimethylamino)but-2-enamide] | 8.92 | 8.92 | 8.21 | – | – | – | – | –
15 | C=CC(=O)N1CCC(N2C(=O)N(c3c(Cl)c(OC)cc(OC)c3Cl)Cc3cnc(NC)nc32)CC1 [Compound 156, 1-(1-acryloylpiperidin-4-yl)-3-(2,6-dichloro-3,5-dimethoxyphenyl)-7-(methylamino)-3,4-dihydropyrimido[4,5-d]pyrimidin-2(1H)-one] | – | – | – | – | potent reversible inhibitors | – | – | –
16 | COc1ccc(Nc2ncc3c(n2)N(C2CCN(C(=O)/C=C/C[N+](C)(C)Cc4c([N+](=O)[O-])ncn4C)CC2)C(=O)N(c2c(Cl)c(OC)cc(OC)c2Cl)C3)cc1.[Br-] [Compound 206, (E)-4-(4-(3-(2,6-dichloro-3,5-dimethoxyphenyl)-7-((4-methoxyphenyl)amino)-2-oxo-3,4-dihydropyrimido[4,5-d]pyrimidin-1(2H)-yl)piperidin-1-yl)-N,N-dimethyl-N-((1-methyl-4-nitro-1H-imidazol-5-yl)methyl)-4-oxobut-2-en-1-aminium bromide] | – | – | – | – | – | 8 | 9.00 | 8.10
17 | COc1cc(OC)c(Br)c(N2Cc3cnc(NC(C)C)nc3N(C3CCN(C(=O)/C=C/C[N+](C)(C)Cc4c([N+](=O)[O-])ncn4C)CC3)C2=O)c1Br.[Br-] [Compound 207, (E)-4-(4-(3-(2,6-dibromo-3,5-dimethoxyphenyl)-7-(isopropylamino)-2-oxo-3,4-dihydropyrimido[4,5-d]pyrimidin-1(2H)-yl)piperidin-1-yl)-N,N-dimethyl-N-((1-methyl-4-nitro-1H-imidazol-5-yl)methyl)-4-oxobut-2-en-1-aminium bromide] | – | – | – | – | – | 53 | 8.10 | 6.39
18 | COc1cc(OC)c(Br)c(-c2cc3cnc(NC(C)C)nc3n(C3CCN(C(=O)/C=C/C[N+](C)(C)Cc4c([N+](=O)[O-])ncn4C)CC3)c2=O)c1Br.[Br-] [Compound 210, (E)-4-(4-(6-(2,6-dibromo-3,5-dimethoxyphenyl)-2-(isopropylamino)-7-oxopyrido[2,3-d]pyrimidin-8(7H)-yl)piperidin-1-yl)-N,N-dimethyl-N-((1-methyl-4-nitro-1H-imidazol-5-yl)methyl)-4-oxobut-2-en-1-aminium bromide] | – | – | – | – | – | 9 | 8.40 | 7.46
19 | COc1cc(OC)c(Br)c(-c2cc3cnc(Nc4ccccc4)nc3n(C3CCN(C(=O)/C=C/C[N+](C)(C)Cc4c([N+](=O)[O-])ncn4C)CC3)c2=O)c1Br.[Br-] [Compound 212, (E)-4-(4-(6-(2,6-dibromo-3,5-dimethoxyphenyl)-7-oxo-2-(phenylamino)pyrido[2,3-d]pyrimidin-8(7H)-yl)piperidin-1-yl)-N,N-dimethyl-N-((1-methyl-4-nitro-1H-imidazol-5-yl)methyl)-4-oxobut-2-en-1-aminium bromide] | – | – | – | – | – | 8 | 8.70 | 7.89
